Laboratory results: PMC11374673, “Discovery of isoquinoline sulfonamides as allosteric gyrase inhibitors with activity against fluoroquinolone-resistant bacteria” (Nature Chemistry, 2024)
Converted amounts (≈) assume the structure as drawn. “And” between values parts separate entries of the source, which are not always exact repeats. Identical values can stand only once.

Legend:
[1] = system: 60-resistant (60-r) isolates of E. coli W3110; experiment: microbe, parasite or virus in culture; assay type: cell-based, Escherichia coli; settings: Escherichia coli
Method in brief: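 Broth microdilution MIC: exponential-phase cultures (OD600 0.5) diluted 100-fold in CAMHB, mixed 1:1 with twofold compound dilutions, 37 °C overnight, shaking at 600 r.p.m. MIC is lowest concentration without visible growth, median of at least triplicates.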

[2] = system: E. coli W3110 gyrA S97L, S83L, D87N; experiment: MIC against CRISPR/Cas9 gyrA point mutants; assay type: cell-based, Escherichia coli; settings: for MIC: Escherichia coli
Protocol: MIC was determined by broth microdilution. Single-colony cultures were grown to exponential phase (OD600 of 0.5) aerobically at 37 °C. In case of strains from the Keio collection, 50 µg ml^−1 kanamycin was supplemented to the media to ascertain a homogeneous population. The bacterial suspensions were diluted 100-fold in CAMHB and 50 µl was added to a twofold serial dilution series of test compounds (50 µl per well) in polypropylene 96-well microtitre plates to reach a volume of 100 µl. The plates were sealed with breathable membranes and incubated overnight at 37 °C with constant shaking (600 r.p.m.). The MIC was determined as the lowest concentration at which no visible bacterial growth was observed as compared with the inoculum controls from the median of a minimum of triplicates.
Mutants of the DNA gyrase subunit A encoding gene (gyrA) were constructed following the protocol for gene editing via the CRISPR–Cas9 system. Strains and plasmids used are listed in Supplementary Table 15, and primers used can be found in Supplementary Table 16. The following mutations were created: S97L in E. coli W3110. Two common mutations in the gyrA gene that give resistance to fluoroquinolone antibiotics were created in E. coli W3110, namely S83L and D87N. To create the gyrA (S97L) mutants, the construct psgRNA-gyrA-M5 was assembled as follows: The 20-nt spacer sequence was introduced by PCR on pTargetF using primers gyrA_P11 and gyrA_P12, the homology-directed repair (HDR) arms were amplified from E. coli W3110 genomic DNA by PCR using primer pairs gyrA_P05 and gyrA_P013, and gyrA_P08 and gyrA_P14. The three PCR fragments generated were cloned into the SpeI and BglII digested pTargetF via Gibson assembly. To avoid off-target effects of CRISPR, besides desired point mutation for gyrA (S97L), four other silent point mutations were also included in the HDR template. Consequently, the amino acid sequence of gyrA will remain the same in the generated mutant except for the desired mutation. Similarly, constructs psgRNA-gyrA-S83L and psgRNA-gyrA-D87N were created to introduce mutations S83L and D87N in gyrA, respectively. In psgRNA-gyrA-S83L, spacer sequence was introduced using primers gyrA_P12 and gyrA_P17, HDR template was amplified using primer pairs gyrA_P05 and gyrA_P18, and gyrA_P08 and gyrA_P19. In psgRNA-gyrA-D87N, spacer sequence was introduced using primers gyrA_P12 and gyrA_P20, HDR template was amplified using primer pairs gyrA_P05 and gyrA_P21, and gyrA_P08 and gyrA_P22. The verified constructs for gyrA engineering were transformed into E. coli W3110 carrying pCas9, and plated in LB containing kanamycin (50 µg ml^−1) for the selection of the pCas9 plasmid and spectinomycin (100 µg ml^−1) for the selection of psgRNA-gyrA-X. The plates were incubated at 30 °C. Plasmids were cured by growing the strains with 0.5 mM isopropylthiogalactoside with no antibiotics to lose first the psgRNA-gyrA plasmids. After losing the spectinomycin resistance, the strain was grown in LB with no antibiotics at 42 °C to lose the pCas plasmid. Colony PCR was performed on plasmid-free colonies using primers gyrA_P9 and gyrA_P10, and PCR products were sequenced to confirm the desired mutation

A. baumannii ATCC BAA747 = experiment: MIC by broth microdilution; assay type: cell-based; settings: Acinetobacter baumannii, ATCCBAA747; read-out: MIC A. baumannii ATCC BAA747
Method in brief: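 Broth microdilution in CAMHB with twofold compound series; exponential-phase cultures (OD600 0.5) diluted 100-fold as inoculum, Keio strains pre-grown with 50 µg ml^−1 kanamycin. Overnight incubation at 37 °C, shaking 600 r.p.m. MIC is lowest concentration without visible growth, median of at least triplicates.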

HEK293T = experiment: Cytotoxicity assay (MTT); assay type: cell-based, human; settings: for MTT data (raw readout): HEK293T; for IC50: 24 h, MTT
Method in brief: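 HEK293T cells, maintained at 37 °C and 7% CO2 in Dulbecco’s modified Eagle medium with GlutaMax, antibiotics and serum, were plated in clear 96-well plates in 100 µl medium containing 1% fetal bovine serum and left 24 h to attach. After 24 h compound exposure, MTT (0.40 mg ml^−1) was added for 2 h. Formazan was dissolved in 100 µl DMSO and absorbance measured at 570 nm. Background-corrected IC50 values came from variable-slope non-linear fits.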

HepG2 = experiment: Cytotoxicity assay (MTT); assay type: cell-based, human; settings: for IC50: MTT, 24 h

SMILES: O=S(=O)(NC[C@@H]1CC[C@H](c2ccc(-c3cccnc3)cc2)N1)c1cccc2cnccc12 [LEI-800]
- MIC ([1]; E. coli W3110 60-r1): > 50 µM
- MIC ([1]; E. coli W3110 60-r3): 12.5 µM (≈ 5.56 µg/mL)
- MIC ([1]; E. coli W3110 60-r6): 12.5 µM (≈ 5.56 µg/mL)
- susceptibility of gyrA S83L / D87N mutants [2]: did not affect the susceptibility
- susceptibility of gyrA S97L mutant ([2]; CRISPR–Cas9 S97L): resistant
- MIC ([2]; E. coli W3110 gyrA D87N (FQ-resistant 2)): 6.25 µM (≈ 2.78 µg/mL)
- MIC ([2]; E. coli W3110 gyrA S83L (FQ-resistant 1)): 6.25 µM (≈ 2.78 µg/mL)
- MIC ([2]; E. coli W3110 gyrA S97L (LEI-800-resistant)): > 50 µM
- MIC (A. baumannii ATCC BAA747): 25 µM (≈ 11.1 µg/mL)
- MTT data (raw readout) (HEK293T; 0.023 uM, experiment n = 1, technical triplicates, listed as LEI-800 (102)): 1.514 and 1.430 and 1.503
- MTT data (raw readout) (HEK293T; 0.023 uM, experiment n = 2, technical triplicates, listed as LEI-800 (102)): 0.881 and 0.910 and 1.010
- MTT data (raw readout) (HEK293T; 0.068 uM, experiment n = 1, technical triplicates, listed as LEI-800 (102)): 1.213 and 1.245 and 1.353
- MTT data (raw readout) (HEK293T; 0.068 uM, experiment n = 2, technical triplicates, listed as LEI-800 (102)): 0.864 and 0.913 and 1.008
- MTT data (raw readout) (HEK293T; 0.21 uM, experiment n = 1, technical triplicates, listed as LEI-800 (102)): 1.179 and 1.313 and 1.432
- MTT data (raw readout) (HEK293T; 0.21 uM, experiment n = 2, technical triplicates, listed as LEI-800 (102)): 0.911 and 0.971 and 1.136
- MTT data (raw readout) (HEK293T; 0.62 uM, experiment n = 1, technical triplicates, listed as LEI-800 (102)): 1.153 and 1.305 and 1.537
- MTT data (raw readout) (HEK293T; 0.62 uM, experiment n = 2, technical triplicates, listed as LEI-800 (102)): 0.849 and 0.899 and 1.012
- MTT data (raw readout) (HEK293T; 1.85 uM, experiment n = 1, technical triplicates, listed as LEI-800 (102)): 1.133 and 1.157 and 1.398
- MTT data (raw readout) (HEK293T; 1.85 uM, experiment n = 2, technical triplicates, listed as LEI-800 (102)): 0.878 and 0.935 and 1.030
- IC50 (HEK293T; Homo sapiens, HEK-293T): 65 µM
- IC50 (HEK293T; listed as LEI-800 (102)): > 50 µM
- MTT data (raw readout) (HepG2; HepG2, 0.023 uM, experiment n = 1, technical triplicates, listed as LEI-800 (102)): 0.404 and 0.388 and 0.378
- MTT data (raw readout) (HepG2; HepG2, 0.023 uM, experiment n = 2, technical triplicates, listed as LEI-800 (102)): 0.268 and 0.286 and 0.353
- MTT data (raw readout) (HepG2; HepG2, 0.068 uM, experiment n = 1, technical triplicates, listed as LEI-800 (102)): 0.391 and 0.379 and 0.435
- MTT data (raw readout) (HepG2; HepG2, 0.068 uM, experiment n = 2, technical triplicates, listed as LEI-800 (102)): 0.250 and 0.293 and 0.379
- MTT data (raw readout) (HepG2; HepG2, 0.21 uM, experiment n = 1, technical triplicates, listed as LEI-800 (102)): 0.377 and 0.445 and 0.431
- MTT data (raw readout) (HepG2; HepG2, 0.21 uM, experiment n = 2, technical triplicates, listed as LEI-800 (102)): 0.243 and 0.281 and 0.327
- MTT data (raw readout) (HepG2; HepG2, 0.62 uM, experiment n = 1, technical triplicates, listed as LEI-800 (102)): 0.371 and 0.373 and 0.384
- MTT data (raw readout) (HepG2; HepG2, 0.62 uM, experiment n = 2, technical triplicates, listed as LEI-800 (102)): 0.248 and 0.278 and 0.343
- MTT data (raw readout) (HepG2; HepG2, 1.85 uM, experiment n = 1, technical triplicates, listed as LEI-800 (102)): 0.402 and 0.403 and 0.424
- MTT data (raw readout) (HepG2; HepG2, 1.85 uM, experiment n = 2, technical triplicates, listed as LEI-800 (102)): 0.281 and 0.293 and 0.337
- IC50 (HepG2; Homo sapiens, HepG2, 24 h): > 100 µM
- IC50 (HepG2; listed as LEI-800 (102)): > 50 µM
